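Five compound concentrations were applied to cells in 96-well plates for 48 hours; endpoints were derived by simple linear interpolation of the resulting dose-response curve. The concentration for full growth arrest is given as TGI.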
Assays:
Assay in all cases: NCI anticancer screen, dose series, 48 h
HOP-62 NSCLC = system: HOP-62 NSCLC
SF-295 CNS = system: SF-295 CNS
SN12C renal = system: SN12C renal
MALME-3M melanoma = system: MALME-3M melanoma
OVCAR-8 ovarian = system: OVCAR-8 ovarian
T-47D breast = system: T-47D breast

SMILES: N#Cc1c(N2CCOCC2)[nH]c(=O)c(C(c2c(Cl)cccc2Cl)c2c(O)c(C#N)c(N3CCOCC3)[nH]c2=O)c1O
- TGI (HOP-62 NSCLC): 79.3 µM
- TGI (SF-295 CNS): > 100 µM
- TGI (SN12C renal): 34.5 µM
- TGI (MALME-3M melanoma): 26.8 µM
- TGI (OVCAR-8 ovarian): 34.1 µM

SMILES: CCCC[C@H]1CCN2C[C@@H](O)[C@@H](O)[C@H]2[C@@H]1O
- TGI (T-47D breast): > 100 µM
- TGI (SF-295 CNS): > 100 µM
- TGI (SN12C renal): > 100 µM
- TGI (MALME-3M melanoma): > 100 µM
- TGI (OVCAR-8 ovarian): > 100 µM

SMILES: O=C1Oc2cc3c(c4cccc1c24)O[C@H](c1ccccc1)[C@@H](c1ccccc1)[C@@H]3c1ccc(Cl)cc1
- TGI (T-47D breast): > 100 µM
- TGI (HOP-62 NSCLC): 42.8 µM
- TGI (SF-295 CNS): > 100 µM
- TGI (SN12C renal): > 100 µM
- TGI (MALME-3M melanoma): > 100 µM
- TGI (OVCAR-8 ovarian): 95.8 µM

SMILES: CCOC(=O)c1c(N2CCCC2)[nH]c(=O)c(C(c2cccs2)c2c(O)c(C(=O)OCC)c(N3CCCC3)[nH]c2=O)c1O
- TGI (T-47D breast): > 100 µM
- TGI (HOP-62 NSCLC): > 100 µM
- TGI (SF-295 CNS): > 100 µM
- TGI (SN12C renal): > 100 µM
- TGI (MALME-3M melanoma): > 100 µM
- TGI (OVCAR-8 ovarian): > 100 µM

SMILES: O=c1oc2ccc([N+](=O)[O-])cc2c(Nc2ccc3c(c2)S(=O)(=O)c2ccccc2O3)c1[N+](=O)[O-]
- TGI (T-47D breast): > 100 µM
- TGI (HOP-62 NSCLC): > 100 µM
- TGI (SF-295 CNS): > 100 µM
- TGI (SN12C renal): > 100 µM
- TGI (MALME-3M melanoma): > 100 µM
- TGI (OVCAR-8 ovarian): > 100 µM

SMILES: S=C1N=C(Cl)/C(=C\c2ccccc2)N1
- TGI (T-47D breast): > 100 µM
- TGI (HOP-62 NSCLC): > 100 µM
- TGI (SF-295 CNS): > 100 µM
- TGI (SN12C renal): > 100 µM
- TGI (MALME-3M melanoma): > 100 µM
- TGI (OVCAR-8 ovarian): > 100 µM

SMILES: CN(C)CC1CN=C(NC(=O)Nc2ccccc2)O1 (stereo not given)
- TGI (T-47D breast): > 100 µM
- TGI (HOP-62 NSCLC): > 100 µM
- TGI (SF-295 CNS): > 100 µM
- TGI (SN12C renal): > 100 µM
- TGI (MALME-3M melanoma): > 100 µM
- TGI (OVCAR-8 ovarian): > 100 µM

SMILES: O=C1c2ccccc2C(=O)c2oc(Br)cc21
- TGI (T-47D breast): 3.6 µM
- TGI (HOP-62 NSCLC): 4.05 µM
- TGI (SF-295 CNS): 1.03 µM
- TGI (SN12C renal): 2.22 µM
- TGI (MALME-3M melanoma): 0.274 µM
- TGI (OVCAR-8 ovarian): 2.92 µM

SMILES: Cn1c2ccccc2c(=O)c2[nH]c3ccccc3c21
- TGI (T-47D breast): > 100 µM
- TGI (HOP-62 NSCLC): > 100 µM
- TGI (SF-295 CNS): > 100 µM
- TGI (SN12C renal): > 100 µM
- TGI (MALME-3M melanoma): > 100 µM
- TGI (OVCAR-8 ovarian): > 100 µM

SMILES: COc1ccc(N=[N+]([O-])c2ccc(OC)cc2)cc1
- TGI (HOP-62 NSCLC): > 100 µM
- TGI (SF-295 CNS): > 100 µM
- TGI (MALME-3M melanoma): > 100 µM
- TGI (OVCAR-8 ovarian): > 100 µM

SMILES: N#CC(C#N)=Cn1c(=S)[nH]c2ccccc21
- TGI (T-47D breast): > 100 µM
- TGI (HOP-62 NSCLC): > 100 µM
- TGI (SF-295 CNS): > 100 µM
- TGI (SN12C renal): > 100 µM
- TGI (MALME-3M melanoma): > 100 µM
- TGI (OVCAR-8 ovarian): > 100 µM

SMILES: CCc1n[nH]c(=O)n1CCO
- TGI (T-47D breast): > 100 µM
- TGI (SF-295 CNS): > 100 µM
- TGI (SN12C renal): > 100 µM
- TGI (OVCAR-8 ovarian): > 100 µM

SMILES: C=CCn1c(-c2ccc(-c3cs/c(=N\N=O)n3CC=C)cc2)cs/c1=N\N=O
- TGI (T-47D breast): > 100 µM
- TGI (HOP-62 NSCLC): > 100 µM
- TGI (SF-295 CNS): > 100 µM
- TGI (SN12C renal): > 100 µM
- TGI (MALME-3M melanoma): > 100 µM
- TGI (OVCAR-8 ovarian): > 100 µM

SMILES: COc1cccc(-c2nc(-c3cnccn3)n(COCCO)n2)c1
- TGI (T-47D breast): > 100 µM
- TGI (HOP-62 NSCLC): > 100 µM
- TGI (SF-295 CNS): > 100 µM
- TGI (SN12C renal): > 100 µM
- TGI (OVCAR-8 ovarian): > 100 µM

SMILES: CC(C)(C)OC(=O)N(CCCCNCc1ccc2ccccc2c1)CCCNCc1ccc2ccccc2c1
- TGI (T-47D breast): 3.44 µM
- TGI (HOP-62 NSCLC): 3.87 µM
- TGI (SN12C renal): 3.32 µM
- TGI (OVCAR-8 ovarian): 3.08 µM

SMILES: Cc1ccc2c(=O)cc(-c3sc4ccccc4c3C)[nH]c2n1
- TGI (T-47D breast): 55.8 µM
- TGI (HOP-62 NSCLC): 75.4 µM
- TGI (SF-295 CNS): 52.1 µM
- TGI (SN12C renal): > 100 µM
- TGI (MALME-3M melanoma): 41.6 µM
- TGI (OVCAR-8 ovarian): 56.3 µM

SMILES: N#Cc1sc2c(c1O)c(=O)n(-c1ccccc1)c(=S)n2-c1ccccc1
- TGI (T-47D breast): > 100 µM
- TGI (SF-295 CNS): > 100 µM
- TGI (SN12C renal): > 100 µM
- TGI (MALME-3M melanoma): > 100 µM
- TGI (OVCAR-8 ovarian): > 100 µM

SMILES: CC1=C(C(=O)OC(C)C)C(c2ccccc2C(F)(F)F)C(C(=O)OC(CO[N+](=O)[O-])CO[N+](=O)[O-])=C(C)N1 (stereo not given)
- TGI (T-47D breast): > 100 µM
- TGI (HOP-62 NSCLC): 29.5 µM
- TGI (SF-295 CNS): 21.8 µM
- TGI (SN12C renal): 32 µM
- TGI (MALME-3M melanoma): 33 µM

SMILES: CC#CC(O)(C(=O)OC1CC2CCC(C1)N2C)C1CCCC1 (stereo not given)
- TGI (T-47D breast): > 100 µM
- TGI (HOP-62 NSCLC): > 100 µM
- TGI (SF-295 CNS): > 100 µM
- TGI (SN12C renal): > 100 µM
- TGI (OVCAR-8 ovarian): > 100 µM

SMILES: C=CCN1CN(c2ccccc2)C2(CCN(CCCC3(c4ccc(F)cc4)OCCO3)CC2)C1=O
- TGI (T-47D breast): 40.3 µM
- TGI (HOP-62 NSCLC): 36 µM
- TGI (SF-295 CNS): 33 µM
- TGI (SN12C renal): 32 µM
- TGI (MALME-3M melanoma): 30.6 µM
- TGI (OVCAR-8 ovarian): 32.5 µM

SMILES: N#CCCN(CCN(CCC#N)C(=O)Nc1ccccc1)C(=O)Nc1ccccc1
- TGI (T-47D breast): > 100 µM
- TGI (HOP-62 NSCLC): 55 µM
- TGI (SF-295 CNS): > 100 µM
- TGI (SN12C renal): > 100 µM
- TGI (MALME-3M melanoma): > 100 µM
- TGI (OVCAR-8 ovarian): > 100 µM

SMILES: COc1ccc(CCc2nccn2C)cc1OC
- TGI (HOP-62 NSCLC): > 100 µM
- TGI (SF-295 CNS): > 100 µM
- TGI (SN12C renal): > 100 µM
- TGI (MALME-3M melanoma): > 100 µM
- TGI (OVCAR-8 ovarian): > 100 µM

SMILES: CC1(C)[C@H]2Cc3cc(-c4cc5c(cn4)[C@@H]4C[C@H]([C@@H]5[C@@H]5c6cc(-c7cc8c(cn7)[C@@H]7C[C@H](C8)C7(C)C)ncc6[C@@H]6C[C@H]5C6(C)C)C4(C)C)ncc3[C@@H]1C2
- TGI (T-47D breast): > 100 µM
- TGI (HOP-62 NSCLC): > 100 µM
- TGI (SF-295 CNS): > 100 µM
- TGI (SN12C renal): > 100 µM
- TGI (MALME-3M melanoma): > 100 µM
- TGI (OVCAR-8 ovarian): > 100 µM

— PubChem BioAssay (NCI)
